Reference: patent US6509335B1, “Benzoxazinoes/benzothiazinones as serine protease inhibitors” (Warner-Lambert Company, priority 1998, dated 2003)

Key:
[1] = tested on: pooled plasma from rabbits; assay: In vitro diluted prothrombin time (dPT) assay, rabbit plasma; conditions: for concentration that causes 2-fold prolongation of baseline dPT: 2X; for concentration that causes 5-fold prolongation of baseline dPT: 5X; for concentration that causes 10-fold prolongation of baseline dPT: 10X
Method: (§1) Rat, rabbit, dog, and human blood (typically 1.8 mL) was collected and added to a sodium citrate solution (3.8%) to afford a 1:10 dilution. After centrifugation (2000 g for 10 minutes), the blood plasma was stored at −70° C. to 0° C. […] […] Fibrin formation and the time required for a clot to form were determined using an automated ST4 Clot Detection System in duplicate.

pooled plasma from dogs = assay: In vitro diluted prothrombin time (dPT) assay, dog plasma; conditions: for concentration that causes 2-fold prolongation of baseline dPT: 2X; for concentration that causes 5-fold prolongation of baseline dPT: 5X; for concentration that causes 10-fold prolongation of baseline dPT: 10X
Method: as §1

[2] = tested on: pooled plasma from human volunteers; assay: In vitro diluted prothrombin time (dPT) assay, human plasma; conditions: for concentration that causes 2-fold prolongation of baseline dPT: 2X; for concentration that causes 5-fold prolongation of baseline dPT: 5X; for concentration that causes 10-fold prolongation of baseline dPT: 10X
Method: as §1

human trypsin = assay: Determination of trypsin IC50 (chromogenic substrate S2222); type: biochemical
Method: The ability of compounds to act as inhibitors of human trypsin catalytic activity is assessed by determination of that concentration of test substance that inhibits by 50% (IC50) the ability of human trypsin to cleave the chromogenic substrate S2222 (N-Bz-L-Ile-L-Glu-L-Gly-L-Arg-p-nitroanilide. HCl, DiaPharma). Typically, 145 μL human trypsin (0.5 nM final) in 10 mM HEPES, 150 mM NaCl, 0.1% BSA, and 5 μL of the test substance in DMSO (2% final) are incubated for 60 minutes at room temperature. Following preheating to 37° C. for 5 minutes, to this mixture is added 100 μL of S2222 in HBSA buffer (100 μM final), and the velocity of S2222 hydrolysis is determined at 37° C. by measuring the optical density at OD 405 nm every 10 seconds over 5 minutes using a ThermoMax® Kinetic Microplate Reader.

human factor Xa [3] = biological target: T1, human factor Xa (Homo sapiens, UniProt P00742); assay: Determination of factor Xa IC50 (chromogenic substrate S2765); type: biochemical
T1 construct: human factor Xa (1 nM final, Enzyme Research Laboratories); purchased Enzyme Research Laboratories
Method: The ability of compounds to act as inhibitors of human factor Xa catalytic activity is assessed by determination of that concentration of test substance that inhibits by 50% (IC50) the ability of human factor Xa to cleave the chromogenic substrate S2765 (N-CBz-D-Arg-L-Gly-L-Arg-p-nitroanilide. 2HCl, DiaPharma). Typically, 145 μL human factor Xa (1 nM final, Enzyme Research Laboratories) in 10 mM HEPES, 150 mM NaCl, 0.1% BSA, pH 7.4 (HBSA buffer), and 5 μL of test substance in DMSO (2% final) are incubated for 60 minutes at room temperature. Following preheating to 37° C. for 5 minutes, to this mixture is added 100 μL of S2765 (400 μM final) in HBSA buffer. The velocity of S2765 hydrolysis is determined at 37° C. by measuring the initial rate of change of the optical density at OD405 nm every 10 seconds for 5 minutes using a ThermoMax® Kinetic Microplate Reader.

[4] = biological target: T2, human tissue factor/factor VIIa complex (Homo sapiens, UniProt P08709); assay: Determination of tissue factor/factor VIIa inhibition (Spectrozyme VIIa); type: biochemical; conditions: read-out: VIIa % inhib. @ 100 μM
T2 construct: 50 μL human factor VIIa (Enzyme Research Laboratories); purchased Enzyme Research Laboratories (factor VIIa); American Diagnostica (tissue factor)
Method: The ability of compounds to act as inhibitors of the catalytic activity of human tissue factor/factor VIIa complex is assessed by determination of that concentration of test substance that inhibits by 50% (IC50 the ability of a complex of human recombinant tissue factor/factor VIIa to cleave the chromogenic substrate Spectrozyme VIIa (CH3SO2-D-CHA-Arg-pNA*AcOH, American Diagnostica). Typically, 50 μL human factor VIIa (Enzyme Research Laboratories) is incubated for 10 minutes as a 1:1 mixture (5 nM final each) with 95 μL recombinant human tissue factor (American Diagnostica) in a modified HBSA buffer (10 mM Hepes, 5 mM CaCl2, 0.1% BSA, pH 8.0). Then 5 μL of the test substance in DMSO (2% final) is added and incubated for 60 minutes at room temperature. Following preheating to 37° C. for 5 minutes, to this mixture is added 100 μL of Spectrozyme VIIa (500 μM final) in modified HBSA, and the velocity of Spectrozyme VIIa hydrolysis is determined at 37° C. by measuring the optical density at an OD405 nm every 10 seconds over 5 minutes using a ThermoMax® Kinetic Microplate Reader.

rabbit = assay: Rabbit veno-venous shunt model of thrombosis; type: in vivo
Method: In that model, a plastic shunt which contains cotton thread was inserted into abdominal vena cava and thrombus developed inside the shunt under control conditions. The end points of the experiment are the time to occlusion (TTO) and thrombus weight. […] Three doses have been tested in a total of 15 rabbits (5 rabbits in each group): 30 μg/kg+1 μg/kg/min, 60 μg/kg+2 μg/kg/min, and 90 μg/kg+3 μg/kg/min. […] The net thrombus weight was reduced from 56.4±4.3 to 21.3±7.8 mg in that group.

human thrombin = biological target: T3, human thrombin (Homo sapiens, UniProt P00734); assay: Determination of thrombin IC50 (chromogenic substrate Chromozym TH); type: biochemical
T3 construct: regulates the generation of thrombin from its zymogen prothrombin; purchased Enzyme Research Laboratories
Method: The ability of compounds to act as inhibitors of human thrombin catalytic activity is assessed by determination of that concentration of test substance that inhibits by 50% (IC50) the ability of human thrombin to cleave the chromogenic substrate Chromozym TH (Tosyl-Gly-Pro-Arg-pNA*Ac, Boehringer Mannheim). Typically, 145 μL human thrombin (0.75 nM, Enzyme Research Laboratories) in a HPB buffer (10 mM HEPES, 100 mM NaCl, 0.05% BSA, 0.1% PEG-8000, pH 7.4) and 5 μL of test substance in DMSO (2% final) are incubated for 60 minutes at room temperature. Following preheating to 37° C. for 5 minutes, to this mixture is added 100 μL of Chromozym TH (24 μM final) in HPB buffer. The velocity of Chromozym TH hydrolysis is determined at 37° C. by measuring the initial rate of change of the optical density at OD 405 nm every 10 seconds for 5 minutes using a ThermoMax® Kinetic Microplate Reader.

[5] = biological target: T4, human prothrombinase (PTase) complex (Homo sapiens, UniProt P00742); assay: In vitro assay for human prothrombinase; type: biochemical; conditions: PTase activity expressed by thrombin activity
T4 construct: 2.5 pM human factor Xa (Enzyme Research Laboratories); purchased Enzyme Research Laboratories
Method: For determination of IC50 (PTase) of the compounds of the invention, PTase activity was expressed by thrombin activity.
PTase reaction was performed in 100 μL of mixture containing PTase (20 μM) PCPS (Avanti Polar Lipids following a procedure modified from Barenholz et al., Biochemistry, 1977;16:2806-2810) in a 30:70 ratio, 2.5 nM human factor Va (Enzyme Research Laboratories) and 2.5 pM human factor Xa (Enzyme Research Laboratories) in modified HEPES buffer (10 mM Hepes, 150 mM NaCl, 0.1% PEG-8000, 0.05% BSA, 2.5 mM CaCl2, pH 7.4), 3 μM human prothrombin (Enzyme Research Laboratories) and varied concentrations of the test compounds (1 nM to 100 μM in DMSO, 2% final). Reaction was started by co-incubating PTase with test compound for 60 minutes at room temperature, followed by addition of prothrombin for 6 minutes at room temperature. Next, the reaction was quenched by the addition of 100 μL of 20 mM EDTA. Activity of the thrombin (product) is then measured in the presence of 50 μL S2238 (250 μM final, H-D-Phe-Pip-Arg-pNA*Ac, DiaPharma) as substrate by measuring the change at 37° C. in OD405 nm for 5 minutes at 10 second intervals using a ThermoMax® Kinetic Microplate Reader.

human factor Xa [6] = biological target: T1, human factor Xa; assay: Determination of factor Xa Ki (fluorogenic S2765); type: biochemical
Method: Compounds of the present invention may be prepared for assay by dissolving them in buffer to give solutions ranging in concentrations from 1 to 100 μM. In an assay to determine the inhibitory dissociation constant, Ki, for a given compound, a chromogenic or fluorogenic substrate of factor Xa would be added to a solution containing a test compound and factor Xa; the resulting catalytic activity of the enzyme is spectrophotometrically determined. This assay is well-known to those skilled in the art and is commonly used to determine antithrombotic activity.
For Ki determinations, the assay conditions were essentially the same as above except for the following. The concentration of factor Xa was 50 pM, and that of the substrate, in this case a fluorogenic S2765 (i.e. S2765 with AMC tag instead of pNA, California Peptide Research), was over the range of 10 to 500 μM. The test compound and substrate in HBSA buffer were incubated as above, and the reaction was initiated with enzyme-buffer. The data (steady-state velocity at various concentrations of the substrate and the inhibitors) of the competitive inhibition was analyzed using the methods described by Segel (Enzyme Kinetics, Wiley Interscience Publications, 1993). […]

[7] = 30 μg/kg+1, 60 μg/kg+2, 90 μg/kg+3 μg/kg/min
[8] = highest dose 90 μg/kg+3 μg/kg/min

T2 sequence (P08709 213-466 limits assumed): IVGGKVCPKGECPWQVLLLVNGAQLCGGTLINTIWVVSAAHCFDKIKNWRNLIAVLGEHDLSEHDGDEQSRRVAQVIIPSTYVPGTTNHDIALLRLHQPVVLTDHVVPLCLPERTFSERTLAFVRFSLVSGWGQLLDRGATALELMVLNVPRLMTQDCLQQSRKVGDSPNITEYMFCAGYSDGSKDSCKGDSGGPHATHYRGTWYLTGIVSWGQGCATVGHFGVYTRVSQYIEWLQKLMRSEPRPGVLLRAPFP
T2 sequence (P08709 61-212 limits assumed): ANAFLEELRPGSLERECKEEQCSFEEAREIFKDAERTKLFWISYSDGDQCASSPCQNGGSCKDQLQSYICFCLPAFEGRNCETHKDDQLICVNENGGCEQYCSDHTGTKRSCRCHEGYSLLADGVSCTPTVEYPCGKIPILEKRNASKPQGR
T2 sequence (P13726 33-295 partner): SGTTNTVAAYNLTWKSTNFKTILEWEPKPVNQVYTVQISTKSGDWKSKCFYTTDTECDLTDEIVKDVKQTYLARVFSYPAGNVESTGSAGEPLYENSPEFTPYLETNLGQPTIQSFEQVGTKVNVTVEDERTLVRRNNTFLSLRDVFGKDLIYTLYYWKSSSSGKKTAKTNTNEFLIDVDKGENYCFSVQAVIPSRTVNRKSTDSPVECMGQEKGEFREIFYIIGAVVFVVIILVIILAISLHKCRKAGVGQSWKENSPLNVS
T1 sequence (P00742 235-488 limits assumed): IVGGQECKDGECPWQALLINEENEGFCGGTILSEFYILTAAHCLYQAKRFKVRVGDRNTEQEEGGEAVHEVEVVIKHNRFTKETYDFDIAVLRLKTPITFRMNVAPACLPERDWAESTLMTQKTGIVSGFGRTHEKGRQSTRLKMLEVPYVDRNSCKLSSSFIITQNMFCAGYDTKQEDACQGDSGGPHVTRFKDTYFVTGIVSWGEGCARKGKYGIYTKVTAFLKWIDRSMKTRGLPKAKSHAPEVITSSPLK
T1 sequence (P00742 41-179 limits assumed): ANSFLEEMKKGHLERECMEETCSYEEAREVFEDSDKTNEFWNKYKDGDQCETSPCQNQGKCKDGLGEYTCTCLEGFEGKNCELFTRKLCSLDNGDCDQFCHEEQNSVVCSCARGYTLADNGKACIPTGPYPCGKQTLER
T4 sequence (P00742 235-488 limits assumed): as the sequence (P00742 235-488 limits assumed) above
T4 sequence (P00742 41-179 limits assumed): as the sequence (P00742 41-179 limits assumed) above
T4 sequence (P12259 29-737 partner limits assumed): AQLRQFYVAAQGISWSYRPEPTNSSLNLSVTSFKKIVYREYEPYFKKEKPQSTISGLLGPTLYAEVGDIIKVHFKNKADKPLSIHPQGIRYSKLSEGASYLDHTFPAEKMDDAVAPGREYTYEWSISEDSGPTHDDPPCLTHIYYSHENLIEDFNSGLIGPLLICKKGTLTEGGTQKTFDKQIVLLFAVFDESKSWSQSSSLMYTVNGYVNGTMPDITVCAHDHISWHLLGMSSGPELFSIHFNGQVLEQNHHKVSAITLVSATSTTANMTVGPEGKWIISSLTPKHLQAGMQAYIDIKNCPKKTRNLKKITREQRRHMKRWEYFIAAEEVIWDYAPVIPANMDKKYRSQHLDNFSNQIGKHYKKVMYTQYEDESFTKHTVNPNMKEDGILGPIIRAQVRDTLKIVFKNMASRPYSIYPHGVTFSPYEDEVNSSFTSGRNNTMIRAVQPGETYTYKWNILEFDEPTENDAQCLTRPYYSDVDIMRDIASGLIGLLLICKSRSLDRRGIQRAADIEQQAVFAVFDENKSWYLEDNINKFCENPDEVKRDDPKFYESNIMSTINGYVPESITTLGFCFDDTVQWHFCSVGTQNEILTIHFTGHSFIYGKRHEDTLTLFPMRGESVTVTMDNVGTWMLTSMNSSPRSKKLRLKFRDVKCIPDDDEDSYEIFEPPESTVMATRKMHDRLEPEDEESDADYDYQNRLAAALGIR
T4 sequence (P12259 1574-2224 partner limits assumed): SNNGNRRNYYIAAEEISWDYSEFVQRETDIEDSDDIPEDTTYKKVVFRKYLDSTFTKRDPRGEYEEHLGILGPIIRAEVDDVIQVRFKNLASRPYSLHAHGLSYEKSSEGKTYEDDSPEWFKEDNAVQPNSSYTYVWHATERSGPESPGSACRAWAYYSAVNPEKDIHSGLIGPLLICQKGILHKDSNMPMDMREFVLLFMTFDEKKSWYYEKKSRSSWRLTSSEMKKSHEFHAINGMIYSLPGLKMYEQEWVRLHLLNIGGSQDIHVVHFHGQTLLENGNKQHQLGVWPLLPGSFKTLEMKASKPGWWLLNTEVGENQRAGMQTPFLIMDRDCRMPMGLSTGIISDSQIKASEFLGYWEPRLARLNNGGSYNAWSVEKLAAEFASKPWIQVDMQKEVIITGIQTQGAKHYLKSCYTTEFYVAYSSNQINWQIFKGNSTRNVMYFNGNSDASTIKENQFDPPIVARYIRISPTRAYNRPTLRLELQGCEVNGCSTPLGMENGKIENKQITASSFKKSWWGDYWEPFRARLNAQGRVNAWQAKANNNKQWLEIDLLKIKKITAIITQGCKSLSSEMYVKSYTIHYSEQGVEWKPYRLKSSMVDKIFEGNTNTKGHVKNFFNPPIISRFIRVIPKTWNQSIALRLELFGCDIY

Row | SMILES | IC50 (human trypsin) | IC50 (human factor Xa [3]) | inhibition at 100 µM [4] | IC50 (human thrombin) | concentration that causes 2-fold prolongation of baseline dPT [1] | concentration that causes 5-fold prolongation of baseline dPT [1] | concentration that causes 10-fold prolongation of baseline dPT [1] | concentration that causes 2-fold prolongation of baseline dPT (pooled plasma from dogs) | concentration that causes 5-fold prolongation of baseline dPT (pooled plasma from dogs) | concentration that causes 10-fold prolongation of baseline dPT (pooled plasma from dogs) | concentration that causes 2-fold prolongation of baseline dPT [2] | concentration that causes 5-fold prolongation of baseline dPT [2] | concentration that causes 10-fold prolongation of baseline dPT [2] | further results
1 | CC(=N)N1CC[C@H](Oc2ccc([C@H](Cc3ccc4ccc(C(=N)N)cc4c3)C(=O)O)cc2)C1 [DX-9065a, reference compound] | – | – | – | – | 1.4 µM | 21.8 µM | 96.8 μM | 2.5 µM | 51.1 µM | 118.6 μM | 0.06 µM | 0.53 µM | 1.3 μM | –
2 | C[C@@H]1CCC[C@H](C)N1CCCCCN1C(=O)C(c2cc(C(=N)N)ccc2O)Oc2ccccc21 (stereo partly drawn) [Example 5, 3-(4-5-[(2R,6S)-2,6-Dimethyltetrahydro-1(2H)-pyridinyl]pentyl-3-oxo-3,4-dihydro-2H-1,4-benzoxazin-2-yl)4-hydroxybenzenecarboximidamide] | 380 nM | < 1 nM | 29% | 1030 nM | 0.44 µM | 0.97 µM | 1.86 μM | 0.84 µM | 1.2 µM | 1.81 μM | 0.0069 µM | 0.063 µM | 0.157 μM | IC50 [5]: 0.17 nM
3 | C[C@@H]1CCC[C@H](C)N1CCCCCN1C(=O)[C@H](c2cc(C(=N)N)ccc2O)Oc2ccccc21 [Example 6, 3-((2S)-4-5-[(2R,6S)-2,6-Dimethyltetrahydro-1(2H)-pyridinyl]pentyl-3-oxo-3,4-dihydro-2H-1,4-benzoxazin-2-yl)-4-hydroxybenzenecarboximidamide] | 750 nM | 3 nM | 37% | 1390 nM | – | – | – | – | – | – | – | – | – | Ki (human factor Xa [6]): 0.076 nM

Second part, led by results:

Row | IC50 (human trypsin) | IC50 (human factor Xa [3]) | inhibition at 100 µM [4] | IC50 (human thrombin) | SMILES | concentration that causes 2-fold prolongation of baseline dPT [1] | concentration that causes 5-fold prolongation of baseline dPT [1] | concentration that causes 10-fold prolongation of baseline dPT [1] | concentration that causes 2-fold prolongation of baseline dPT (pooled plasma from dogs) | concentration that causes 5-fold prolongation of baseline dPT (pooled plasma from dogs) | concentration that causes 10-fold prolongation of baseline dPT (pooled plasma from dogs) | concentration that causes 2-fold prolongation of baseline dPT [2] | concentration that causes 5-fold prolongation of baseline dPT [2] | concentration that causes 10-fold prolongation of baseline dPT [2] | further results
4 | 474 nM | 7 nM | 30% | – | C[C@@H]1CCC[C@H](C)N1CCCCCN1C(=O)C(c2cccc(C(=N)N)c2)Oc2ccccc21 (stereo partly drawn) [Example 2, 3-(4-5-[(2R,6S)-2,6-Dimethylhexahydro-1-pyridinyl]pentyl-3-oxo-3,4-dihydro-2H-1,4-benzoxazin-2-yl)-1-benzenecarboximidamide] | – | – | – | – | – | – | – | – | – | net thrombus weight, dose dependence (rabbit; [7]): reduced the net thrombus weight; time to occlusion, dose dependence (rabbit; [7]): dose-dependently prolonged the time to occlusion; ACT (rabbit; all 3 dose groups): only slight increases; animals with no occlusive thrombus formation during the 120-minute test period (rabbit; [8]): 4 out of 5; prolongation of PT (rabbit; [8]): 1.8 fold; prolongation of TT (rabbit; [8]): 1.5 fold; prolongation of aPTT (rabbit; [8]): 5.4 fold; prolongation of bleeding time (rabbit; [8]): 2.5 fold; time to occlusion (TTO) (rabbit; highest dose 90 μg/kg+3 μg/kg/min, bolus via jugular vein + infusion 140 minutes, control 16.8±5.4): 98.2 ± 21.8 min; net thrombus weight (rabbit; highest dose 90 μg/kg+3 μg/kg/min, control 56.4±4.3): 21.3 ± 7.8 mg
5 | 782 nM | 108 nM | 31% | 1780 nM | C[C@@H]1CCC[C@H](C)N1CCCCCN1C(=O)C(c2cccc(C(=N)N)c2)Sc2ccccc21 (stereo partly drawn) [Example 3, 3-(4-5-[(2R,6S)-2,6-Dimethylhexahydro-1-pyridinyl]pentyl-3-oxo-3,4-dihydro-2H-1,4-benzothiazin-2-yl)-1-benzenecarboximidamide] | – | – | – | – | – | – | – | – | – | –
